From publication PMC8708985, “Regulation of D-Aspartate Oxidase Gene Expression by Pyruvate Metabolism in the Yeast Cryptococcus humicola” (Microorganisms, 2021)

Molecular target: T1, ChDDO (Vanrija humicola, UniProt Q75WF1)
T1 construct: gene DDO; native enzyme in crude extract of D-Asp-induced strain UJ1 cells; FAD added
Assay: HRP-coupled phenol/4-aminoantipyrine H2O2 assay at […] nm, crude extract
Assay type: biochemical
Conditions: 20 mM D-Asp; 20 uM FAD; 50 mM potassium phosphate pH 8.0

T1 sequence (Q75WF1 whole entry): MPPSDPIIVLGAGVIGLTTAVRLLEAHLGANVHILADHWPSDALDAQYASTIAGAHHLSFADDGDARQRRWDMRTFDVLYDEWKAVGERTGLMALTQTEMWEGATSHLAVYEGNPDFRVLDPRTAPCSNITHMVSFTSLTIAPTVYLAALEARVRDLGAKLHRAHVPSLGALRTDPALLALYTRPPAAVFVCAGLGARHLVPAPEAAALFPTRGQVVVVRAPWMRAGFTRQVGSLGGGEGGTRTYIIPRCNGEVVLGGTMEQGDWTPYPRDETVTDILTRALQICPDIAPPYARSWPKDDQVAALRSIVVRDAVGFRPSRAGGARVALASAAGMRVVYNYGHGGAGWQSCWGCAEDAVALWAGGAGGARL

Structure (SMILES): N[C@H](CC(=O)O)C(=O)O [D-Asp]
- HRP-coupled phenol/4-aminoantipyrine H2O2 assay at 505 nm, crude extract: the enzyme activity in the crude extract of the ΔChpyc1 strain induced by D-Asp
